{"source": "patent US20100184807A1", "about": "“Methods to inhibit tumor cell growth by using proton pump inhibitors” (Bio-Quant, Inc., priority 2008, published 2010)", "key": {"SUDHL4 (lymphoma)": {"system": "SUDHL4 (lymphoma)", "assay": "MTT tumor cell growth assay", "type": "cell-based", "description": "(§1) In one study, adherent cells were plated approximately 16-24 hours before the day of the experiment in 180 μl growth media. On the day of the experiment, the plated adherent cells were analyzed and counted and suspension cells were plated in 180 μl growth media. 10× lansoprazole compounds and vehicle was prepared. The 10× lansoprazole compounds were prepared by diluting lansoprazole to final concentrations of 100 μM, 30 μM, 10 μM, 3 μM, and 1 μM. A vehicle was prepared by preparing a solution of PBS, equivalent to the volume used for 10 μM lansoprazole wherein the 1× solution constitutes ˜0.06% PBS. 10 μl of the various 10× lansoprazole solutions and the vehicle were added to the cells. The cells were incubated at 37° C., 5% CO2 for 48 hours. The media was then aspirated. The cell suspension was then spun at 1500 RPM for 10 minutes. The media was slowly removed. 200 μl of MTT solution was added to each well with a concentration of 0.863 mg/ml MTT in the growth media. The cells were incubated at 37° C., 5% CO2 for 4 hours and the medium is then aspirated. The plate containing the cell suspension was then spun at 1500 RPM for 10 minutes. The media was slowly removed using a multichannel pipettor. 100 μl of DMSO was then added to each well. The cells were incubated at 37° C., 5% CO2 for 5 minutes and the absorbance was obtained at 560 nm using a Dynex Opsys MR plate reader. The cells used for this procedure were the following cell lines: IGROV1 (ovarian cancer); OVCAR 8 (ovarian cancer); ES-2 (ovarian cancer); CAOV3 (ovarian cancer); OVCAR5 (ovarian cancer); SUDHL4 (lymphoma); RPMI8226 (myeloma); RPMI6666 (Hodgkin's lymphoma); NC37 (lymphoma); GDM-1 (leukemia); MC/CAR (prostate cancer); DU-145 (prostate cancer), J45-01 (leukemia), MOLT3 (leukemia), HUT78, J-gamma-1 (leukemia), MCF7 […], COL0205 (colon cancer), HL60 CLONE 15 (leukemia), T47D (breast cancer), P116 (intestinal cancer), KU812 (leukemia), SW620 (colon cancer), MK92-M1 (lymphoma), MV-4-11 (leukemia), HS578T (breast cancer), HT29 (colon cancer), HCT 116 (colon cancer), CAKI-1 (kidney cancer), A549 (lung cancer), H460 (lung cancer), A3 (colon cancer), MDA-MB231 […], MALME 3M (melanoma), RXF393 (kidney cancer), RS4.11 (leukemia), PC3 (prostate cancer), OVCAR3 (ovarian cancer), MDA-MB435 (melanoma), HUT102 (lymphoma), HL60 (leukemia), CCRF-CEM (leukemia), HUT78 (lymphoma), 786-O (kidney cancer), ACHN (kidney cancer), A498 (kidney cancer), H226 (lung cancer), H522 (lung cancer), HOP92 (lung cancer), SNB 19 (brain cancer), OVCAR4 (ovarian cancer), H9 (lymphoma), UO-31 (kidney cancer), HH (lymphoma), DAUDI (leukemia), LOXIMVI (melanoma), NAMALWA (lymphoma), EKVX (lung cancer), DOHH2 (lymphoma), SNB75 (brain cancer), SKMEL28 (melanoma), SKMEL5 (melanoma), SKMEL2 (melanoma), M14 (melanoma), UACC 257 (melanoma), H332M (lung cancer), KM12 (colon cancer), HCC2998 (colon cancer), G401 (kidney cancer), RS1184 (lymphoma), MC116 (leukemia), MOLT4 (leukemia), JM1 (liver cancer), HOP-62 (lung cancer), HCT-15 (colon cancer), SF-539 (brain cancer), SF295 (brain cancer), ST486 (lymphoma), U251 (brain cancer), and UACC-62 (melanoma).\n(§2) Experiments, as described in Example I were conducted with lansoprazole, omeprazole and SCH 28080 at concentrations of 1 μM, 10 μM, and 100 μM. FIGS. 3A-3K show the experimental results when tumor cells from the following cell lines were treated with lansoprazole, omeprazole, and SCH 28080: IGROV1 (FIG. 3A), OVCAR8 (FIG. 3B), ES-2 (FIG. 3C), CAOV3 (FIG. 3D), OVCAR5 (FIG. 3E), SUDHL4 (FIG. 3F), RPMI8226 (FIG. 3G), RPMI6666 (FIG. 3H), NC37 (FIG. 3I), GDM-1 (FIG. 3J), and MC/CAR (FIG. 3K)."}, "NC37 (lymphoma)": {"system": "NC37 (lymphoma)", "assay": "MTT tumor cell growth assay", "type": "cell-based", "description": "as §1, §2"}, "[1]": {"system": "RPMI6666 (Hodgkin's lymphoma)", "assay": "MTT tumor cell growth assay", "type": "cell-based", "description": "as §1, §2"}, "GDM-1 (leukemia)": {"system": "GDM-1 (leukemia)", "assay": "MTT tumor cell growth assay", "type": "cell-based", "description": "as §1, §2"}, "RPMI8226 (myeloma)": {"system": "RPMI8226 (myeloma)", "assay": "MTT tumor cell growth assay", "type": "cell-based", "description": "as §1, §2"}, "OVCAR5 (ovarian cancer)": {"system": "OVCAR5 (ovarian cancer)", "assay": "MTT tumor cell growth assay", "type": "cell-based", "description": "as §1, §2"}, "MC/CAR (prostate cancer)": {"system": "MC/CAR (prostate cancer)", "assay": "MTT tumor cell growth assay", "type": "cell-based", "description": "as §1, §2"}, "[2]": {"system": "SR Liquid Leukemia (leukemia)", "assay": "Xenograft nude mouse model, SR Liquid Leukemia", "type": "in vivo", "conditions": "nude mice, 100 mg/kg in PEG300", "description": "JR (rhabdomyosarcoma), HepG2 (liver carcinoma), SR Liquid Leukemia (leukemia), RSI 184 B Lymphoma (lymphoma), and G401 rhabdoid (kidney) cancer cells for use in a xenograft mouse model were collected from JR, HepG2, SR Liquid Leukemia, RS1184 B Lymphoma, and G401 rhabdoid tumor cell lines and injected at 5×10^6 cells per nude mouse in a volume of 100 μl subcutaneously. The animals were examined three times weekly to determine the progression of the tumors and determine body weight. Dosing started when tumors reached the ˜75-150 mm^3 size. Animals were randomized and distributed in groups in such a way that mean tumor weights in all groups were within 15% of the mean tumor weight in Group 1 (Control—vehicle group). Upon reaching the ˜75-150 mm^3 target size an effective amount of lansoprazole was administered to the mice in a suspension of PEG300 at a concentration of 100 mg/kg."}}}
{"compound": "Cc1c(OCC(F)(F)F)ccnc1C[S+]([O-])c1nc2ccccc2[nH]1", "note": "(stereo not drawn) [lansoprazole]", "values": [{"measurement": "reducing tumor cell growth", "setting": "SUDHL4 (lymphoma); SUDHL4 (FIG. 3F), 100 μM", "result": "effective in reducing tumor cell growth"}, {"measurement": "tumor cell growth reduction", "setting": "SUDHL4 (lymphoma); SUDHL4 cells, lansoprazole 1-100 μM, 48 hours, MTT", "result": "significant tumor cell growth reduction"}, {"measurement": "reducing tumor cell growth", "setting": "NC37 (lymphoma); NC37 (FIG. 3I), 100 μM", "result": "effective in reducing tumor cell growth"}, {"measurement": "tumor cell growth reduction", "setting": "NC37 (lymphoma); NC37 cells, lansoprazole 1-100 μM, 48 hours, MTT", "result": "significant tumor cell growth reduction"}, {"measurement": "reducing tumor cell growth", "setting": "[1]; RPMI6666 (FIG. 3H), 100 μM", "result": "effective in reducing tumor cell growth"}, {"measurement": "tumor cell growth reduction", "setting": "[1]; RPMI6666 cells, lansoprazole 1-100 μM, 48 hours, MTT", "result": "significant tumor cell growth reduction"}, {"measurement": "reducing tumor cell growth", "setting": "GDM-1 (leukemia); GDM-1 (FIG. 3J), 10 μM", "result": "effective in reducing tumor cell growth"}, {"measurement": "tumor cell growth reduction", "setting": "GDM-1 (leukemia); GDM-1 cells, lansoprazole 1-100 μM, 48 hours, MTT", "result": "significant tumor cell growth reduction"}, {"measurement": "reducing tumor cell growth", "setting": "RPMI8226 (myeloma); RPMI8226 (FIG. 3G), 100 μM", "result": "effective in reducing tumor cell growth"}, {"measurement": "tumor cell growth reduction", "setting": "RPMI8226 (myeloma); RPMI8226 cells, lansoprazole 1-100 μM, 48 hours, MTT", "result": "significant tumor cell growth reduction"}, {"measurement": "reducing tumor cell growth", "setting": "OVCAR5 (ovarian cancer); OVCAR5 (FIG. 3E), 100 μM", "result": "effective in reducing tumor cell growth"}, {"measurement": "tumor cell growth reduction", "setting": "OVCAR5 (ovarian cancer); OVCAR5 cells, lansoprazole 1-100 μM, 48 hours, MTT", "result": "significant tumor cell growth reduction"}, {"measurement": "reducing tumor cell growth", "setting": "MC/CAR (prostate cancer); MC/CAR (FIG. 3K), 100 μM", "result": "effective in reducing tumor cell growth"}, {"measurement": "tumor cell growth reduction", "setting": "MC/CAR (prostate cancer); MC/CAR cells, lansoprazole 1-100 μM, 48 hours, MTT", "result": "significant tumor cell growth reduction"}, {"measurement": "treating tumor cells derived from tumor cell line", "setting": "[2]", "result": "especially effective"}]}
